Measurements from publication PMC4063695, “Design of Embedded-Hybrid Antimicrobial Peptides with Enhanced Cell Selectivity and Anti-Biofilm Activity” (PLoS ONE, 2014).

Assays:
[1] = system: Gram-negative and Gram-positive strains; assay: MIC over all tested strains (range, geometric mean); assay type: cell-based; set-up: GM (geometric mean of MIC values from all microbial strains): unit not given here; settings: all strains of Table 2
Excerpt: (§1) E. coli ATCC25922, P. aeruginosa ATCC27853, S. aureus ATCC29213, S. epidermidis ATCC12228, S. faecalis ATCC29212 and B. subtilis CMCC63501 were obtained from the College of Veterinary Medicine, Northeast Agricultural University (Harbin, China), E. coli K88, E. coli CVCC1515 and P. aeruginosa ATCC15442 were bestowed by Prof. J.H. Wang (Gene Engineering Laboratory, Feed Research Institute, Chinese Academy of Agricultural Sciences Beijing, China) and E. coli UB1005 was kindly provided by Prof. Q.S. Qi (State Key Laboratory of Microbial Technology, Shandong University, China). […] Briefly, 50 µl of approximate 0.5–1 × 10^6 colony forming units (CFU)/ml of cells were diluted in Mueller-Hinton broth and distributed to 96-well plate, 50 µl of twofold peptides were added and the plates was incubated at 37°C for 18–24 h. The MIC values were calculated as the lowest peptide concentration that prevented visible turbidity and negative control of the pure broth without microbes. The tests were performed at least three times in duplicate.

[2] = system: E. coli ATCC25922; assay: MIC in the presence of physiological salts; assay type: cell-based, Escherichia coli; set-up: unit not given here
Excerpt: as §1
(§2) The stability of peptides was tested in the MIC assay in different environments, including salt sensitivity, human serum, thermal stability and susceptibility to enzymes. For salt sensitivity, 0.5–1 × 10^6 CFU/ml of P. aeruginosa ATCC27853 and E. coli ATCC25922 were treated with peptides, while different salts were added to MHB, and the final concentrations of physiological salts were as follows: 150 mM NaCl, 4.5 mM KCl, 1 mM MgCl2, 6 µM NH4Cl, 8 µM ZnCl2, 4 µM FeCl3 and […] [33]. Except salt sensitivity, only E. coli ATCC25922 was treated with peptides. […] For testing peptide sensitivity to the proteolytic enzymes, the peptides were incubated in advance at 37°C for 1 h with a 1 mg/ml final concentration of the proteolytic enzymes (trypsin, pepsin, papain and proteinase K). For testing thermal stability, incubation occurred at 100°C for 1 h. After these treatments, the procedures were same as MIC assay described above.

[3] = system: P. aeruginosa ATCC27853; assay: MIC in the presence of physiological salts; assay type: cell-based, Pseudomonas aeruginosa; set-up: unit not given here
Excerpt: as §1, §2

[4] = system: E. coli ATCC25922; assay: MIC after treatment with serum, enzymes and heat; assay type: cell-based, Escherichia coli; settings: E. coli ATCC25922
Excerpt: as §1, §2

[5] = system: E. coli UB1005; assay: Cytoplasmic membrane electrical potential, diSC3-5; assay type: cell-based, Escherichia coli; settings: diSC3-5 release over 600 s
Protocol: Peptides could alter the electrical potential of cytoplasmic membrane, and this potential that was measured by using E. coli UB1005 cells and diSC3-5 (Sigma), a membrane potential-sensitive fluorescent dye, as previously described, [35]. E. coli UB1005 was cultured to logarithmic phase in MHB, harvested by centrifugation, washed twice with buffer (5 mM of HEPES and 20 mM of glucose, pH 7.4) and resuspended to an OD600 of 0.05 in the identical buffer. The dye (diSC3-5) was added to above buffer at a final concentration of 0.4 µM. And the bacteria were incubated to take up the dye for 90 min. KCl was added to a final concentration of 0.1 M for equilibrating K^+ concentration between extracellular and intracellular environment, and then the bacteria were incubated at room temperature for 10 min. The cell suspension (2 ml) was placed in a 1-cm cuvette, and the peptides were added to different concentrations. The fluorescence intensity changes were monitored by using an F-4500 fluorescence spectrophotometer (Hitachi, Japan) with an excitation wavelength of 622 nm and an emission wavelength of 670 nm.

[6] = system: resistant variants of P. aeruginosa; assay: microbe, parasite or virus in culture; assay type: cell-based; settings: Pseudomonas aeruginosa, ATCC15442
Excerpt: as §1

[7] = all kinds of salts in physiological concentrations

With `CC[C@H](C)[C@H](NC(=O)CN)C(=O)NCC(=O)N[C@@H](C)C(=O)N[C@H](C(=O)N[C@@H](CC(C)C)C(=O)N[C@@H](CCCCN)C(=O)N[C@H](C(=O)N[C@@H](CC(C)C)C(=O)N[C@H](C(=O)N[C@H](C(=O)NCC(=O)N[C@@H](CC(C)C)C(=O)N1CCC[C@H]1C(=O)N[C@@H](C)C(=O)N[C@@H](CC(C)C)C(=O)N[C@H](C(=O)N[C@@H](CO)C(=O)N[C@@H](Cc1c[nH]c2ccccc12)C(=O)N[C@H](C(=O)N[C@@H](CCCCN)C(=O)N[C@@H](CCCNC(=N)N)C(=O)N[C@@H](CCCCN)C(=O)N[C@@H](CCCNC(=N)N)C(=O)N[C@@H](CCC(N)=O)C(=O)N[C@@H](CCC(N)=O)C(N)=O)[C@@H](C)CC)[C@@H](C)CC)[C@@H](C)O)[C@@H](C)O)C(C)C)C(C)C` [ME26, melittin, reference compound] the “GM (geometric mean of MIC values from all microbial strains)” value [1] was 2.2, the “MIC, FeCl3” value ([2]; 4 µM FeCl3 in MHB) was 2 and the “MIC, NH4Cl” value ([2]; 6 µM NH4Cl in MHB) was 2. For the same compound, the “MIC, ZnCl2” value ([2]; 8 µM ZnCl2 in MHB) was 4, the “MIC, MgCl2” value ([2]; 1 mM MgCl2 in MHB) was 4 and the “MIC, KCl” value ([2]; 4.5 mM KCl in MHB) was 2. For the same compound, the “MIC, NaCl” value ([2]; 150 mM NaCl in MHB) was 4, the “MIC, Mix” value [2, 7] was 4 and the “MIC, CaCl2” value ([2]; in MHB) was 2. The “MIC, Control” value ([2]; no added salts, unit not given) was 2, the “MIC, CaCl2” value ([3]; 2.5 µM CaCl2 in MHB) was 2 and the “MIC, FeCl3” value ([3]; 4 µM FeCl3 in MHB) was 2. For the same compound, the “MIC, NH4Cl” value ([3]; 6 µM NH4Cl in MHB) was 2, the “MIC, ZnCl2” value ([3]; 8 µM ZnCl2 in MHB) was 2 and the “MIC, MgCl2” value ([3]; 1 mM MgCl2 in MHB) was 8. The “MIC, KCl” value ([3]; 4.5 mM KCl in MHB) was 2, the “MIC, NaCl” value ([3]; 150 mM NaCl in MHB) was 2 and the “MIC, Mix” value [3, 7] was 16. The “MIC, Control” value ([3]; no added salts, unit not given) was 2, the “MIC, Serum 25%” value ([4]; 25% human serum in MHB) was 8 and the “MIC, Serum 50%” value ([4]; 50% human serum in MHB) was 8. For the same compound, the “MIC, Heat 100°C” value ([4]; peptide incubated at 100°C for 1 h) was 2, the “MIC, Enzymes Caroid” value ([4]; peptide pre-incubated 1 h at 37°C with 1 mg/ml enzyme (method names papain)) was over 128 and the “MIC, Enzymes Pepsin” value ([4]; peptide pre-incubated 1 h at 37°C with 1 mg/ml pepsin) was over 128. The “MIC, Enzymes Proteinase K” value ([4]; peptide pre-incubated 1 h at 37°C with 1 mg/ml proteinase K) was 32, the “MIC, Enzymes Trypsin” value ([4]; peptide pre-incubated 1 h at 37°C with 1 mg/ml trypsin) was over 128 and the “cytoplasmic membrane depolarization (in words)” value [5] was “able to permeabilize the bacterial cell membrane even at a lower concentration than their MICs”.
`CNC(C)C1CCC(N)C(OC2C(N)CC(N)C(OC3OCC(C)(O)C(NC)C3O)C2O)O1` (stereo not shown) [gentamicin] showed an MIC [6] of over 256 µM.
